One compound from patent publication US20120244549A1, “Detection Method for Methyltransferase Enzymatic Activity” (BELLBROOK LABS, LLC, priority 2011, published 2012) can be followed below.

Structures are written as SMILES.

The experiment deals with T1, G9a methyltransferase (Homo sapiens, UniProt Q96KQ7).
T1 sequence (Q96KQ7 1-1210): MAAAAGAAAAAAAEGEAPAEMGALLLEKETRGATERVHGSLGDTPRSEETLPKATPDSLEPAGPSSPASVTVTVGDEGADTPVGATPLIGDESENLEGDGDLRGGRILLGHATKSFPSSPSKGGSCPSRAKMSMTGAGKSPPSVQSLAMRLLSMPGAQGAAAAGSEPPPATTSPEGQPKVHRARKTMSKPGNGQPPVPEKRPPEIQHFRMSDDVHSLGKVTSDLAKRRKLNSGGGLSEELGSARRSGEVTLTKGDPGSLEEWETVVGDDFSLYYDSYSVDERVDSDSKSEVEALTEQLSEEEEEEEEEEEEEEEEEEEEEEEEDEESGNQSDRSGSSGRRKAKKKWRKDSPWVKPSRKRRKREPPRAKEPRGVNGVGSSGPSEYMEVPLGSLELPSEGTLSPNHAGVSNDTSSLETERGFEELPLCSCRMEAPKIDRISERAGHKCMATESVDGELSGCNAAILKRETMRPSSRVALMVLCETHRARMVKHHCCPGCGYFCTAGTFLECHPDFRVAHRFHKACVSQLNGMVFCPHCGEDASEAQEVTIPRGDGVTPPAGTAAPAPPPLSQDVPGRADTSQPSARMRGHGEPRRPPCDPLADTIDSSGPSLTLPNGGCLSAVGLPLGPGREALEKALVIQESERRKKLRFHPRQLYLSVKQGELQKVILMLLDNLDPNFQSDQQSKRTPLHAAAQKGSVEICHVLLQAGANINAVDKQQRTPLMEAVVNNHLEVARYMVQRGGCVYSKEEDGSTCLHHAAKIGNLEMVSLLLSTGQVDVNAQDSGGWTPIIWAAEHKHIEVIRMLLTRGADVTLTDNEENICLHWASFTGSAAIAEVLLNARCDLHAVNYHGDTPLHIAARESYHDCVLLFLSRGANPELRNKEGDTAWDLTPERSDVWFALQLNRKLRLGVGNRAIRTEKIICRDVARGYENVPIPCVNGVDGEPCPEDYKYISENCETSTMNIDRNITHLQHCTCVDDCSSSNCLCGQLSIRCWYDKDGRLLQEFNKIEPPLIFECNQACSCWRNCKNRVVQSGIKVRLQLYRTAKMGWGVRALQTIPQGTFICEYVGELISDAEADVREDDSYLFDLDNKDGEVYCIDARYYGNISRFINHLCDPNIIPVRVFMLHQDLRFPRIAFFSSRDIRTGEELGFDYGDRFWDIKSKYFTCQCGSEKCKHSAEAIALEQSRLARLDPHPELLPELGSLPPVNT
In words: G9a histone methyltransferase inhibitor dose response, coupled-enzyme AMP fluorescent immunodetection assay (FIG. 6). The class given is biochemical.

Procedure: In addition, inhibitor potencies were determined with G9a HMT.
HMT reactions were run for 60 minutes followed by addition of quench and detection reagents including the SAM-SAH coupling enzyme mixture and the Transcreener® AMP2/GMP2 Assay monoclonal antibody and tracer.

With `CN1C(=O)[C@@]23C[C@]4([C@]56C[C@@]78SS[C@@](CO)(C(=O)N7[C@H]5Nc5ccccc56)N(C)C8=O)c5ccccc5N[C@@H]4N2C(=O)[C@]1(CO)SS3` [chaetocin], inhibition was half-maximal at 770 µM (IC50).
